Laboratory results taken from paper PMC12627627 (Nature Communications, 2025).
One block for each compound: values may come before it.

Key:
Format in all cases: binding
R12 domain of RyR1 = target: T1, R12 domain of RyR1 (Homo sapiens, UniProt P21817); assay: ITC, R12 domain of RyR1; settings: AMP-PCP or ADP alone, without DAN/AZU (Supplementary Fig. 1)
T1 construct: RyR1 854–1054, RyR2 865–1065, RyR3 853–1053; made in house; host or cells: E. coli BL21 (DE3)
T1 sequence (P21817 854-1054): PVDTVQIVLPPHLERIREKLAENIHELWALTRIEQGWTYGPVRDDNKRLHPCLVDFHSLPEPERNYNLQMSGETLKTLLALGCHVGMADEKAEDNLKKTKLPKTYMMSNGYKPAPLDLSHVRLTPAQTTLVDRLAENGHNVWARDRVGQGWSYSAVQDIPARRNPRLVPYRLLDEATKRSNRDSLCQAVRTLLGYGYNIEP
Procedure: (§1) The plasmids were subsequently transformed into E. coli BL21 (DE3) cells (NEB, USA) and cultured in Luria-Bertani (LB) media at 37 °C. Protein expression was induced with 0.4 mM isopropyl β-D-thiogalactoside (IPTG) when the optical density (OD)600 reached ~0.8, followed by incubation at 18 °C for 12 h. The cells were harvested via centrifugation at 5,000 × g for 15 min at 4 °C and homogenized in Buffer A (10 mM HEPES, pH 7.4, 250 mM KCl) supplemented with 25 µg/mL DNaseI, 25 µg/mL lysozyme, 1 mM phenylmethylsulfonyl fluoride (PMSF), and 20 mM imidazole. The homogenate was centrifuged at 12,000 × g for 45 min, and the supernatant was filtered through a syringe filter (0.22 µm).
(§2) Purified R12 domain protein from the three RyR isoforms, fused with hexahistidine-tagged MBP (HMT-R12) was dialyzed overnight at 4 °C in ITC buffer (200 mM HEPES, pH 7.4, 150 mM KCl). ITC experiments were performed using a PEAQ-ITC instrument (Malvern, UK) at 25 °C with a stirring speed of 750 rpm. […] For the ternary binding experiments, 500 μM or 5 mM AMP-PCP/ADP was preincubated with both the titrants and titrates. […] The data was fit to a one-site fitting model after background buffer subtraction. The RyR1 R12 mutants were generated using a QuikChange mutagenesis kit (Stratagene) according to the manufacturer’s protocol, with primer sequences listed in Supplementary Table 3.

R12 domain of RyR3 = target: T2, R12 domain of RyR3 (Homo sapiens, UniProt Q15413); assay: ITC, R12 domain of RyR3
T2 construct: RyR1 854–1054, RyR2 865–1065, RyR3 853–1053; made in house; host or cells: E. coli BL21 (DE3)
T2 sequence (Q15413 853-1053): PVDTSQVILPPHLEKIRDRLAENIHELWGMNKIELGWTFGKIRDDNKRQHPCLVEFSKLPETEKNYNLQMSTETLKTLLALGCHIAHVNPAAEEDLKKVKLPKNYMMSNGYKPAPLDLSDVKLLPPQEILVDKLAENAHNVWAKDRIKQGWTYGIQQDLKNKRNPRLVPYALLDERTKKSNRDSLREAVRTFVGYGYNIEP
Procedure: as §1, §2

R12 domain of RyR2 = target: T3, R12 domain of RyR2 (Homo sapiens, UniProt Q92736); assay: ITC, R12 domain of RyR2; settings: absence or presence of AMP-PCP or ADP
T3 construct: RyR1 854–1054, RyR2 865–1065, RyR3 853–1053; made in house; host or cells: E. coli BL21 (DE3)
T3 sequence (Q92736 865-1065): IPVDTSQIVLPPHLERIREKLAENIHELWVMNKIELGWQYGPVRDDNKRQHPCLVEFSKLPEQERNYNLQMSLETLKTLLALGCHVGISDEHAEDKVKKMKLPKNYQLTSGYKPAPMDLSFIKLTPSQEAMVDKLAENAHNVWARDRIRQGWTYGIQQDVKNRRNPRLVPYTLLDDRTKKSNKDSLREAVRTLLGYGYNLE
Procedure: as §1, §2

- binding of nucleotide alone by ITC (R12 domain of RyR1): did not exhibit detectable binding
SMILES: Nc1ncnc2c1ncn2[C@@H]1O[C@H](COP(=O)(O)OP(=O)(O)O)[C@@H](O)[C@H]1O [ADP]

SMILES: Nc1ncnc2c1ncn2[C@@H]1O[C@H](COP(=O)(O)OP(=O)(O)CP(=O)(O)O)[C@@H](O)[C@H]1O [AMP-PCP]
- binding of nucleotide alone by ITC (R12 domain of RyR1): did not exhibit detectable binding

- Kd (R12 domain of RyR3; RyR3 R12 + 500 µM ADP): 259 ± 31 nM
- No of Sites (N) (R12 domain of RyR3; RyR3 R12 + 500 µM ADP): 0.461 ± 0.26
- ΔH (R12 domain of RyR3; RyR3 R12 + 500 µM ADP): -5.53 ± 0.34 kcal/mol
- −TΔS (R12 domain of RyR3; RyR3 R12 + 500 µM ADP): -3.46 kcal/mol
- Kd (R12 domain of RyR3; RyR3 R12 + 500 µM AMP-PCP): 72 ± 20 nM
- No of Sites (N) (R12 domain of RyR3; RyR3 R12 + 500 µM AMP-PCP): 0.726 ± 0.53
- ΔH (R12 domain of RyR3; RyR3 R12 + 500 µM AMP-PCP): -8.63 ± 0.14 kcal/mol
- −TΔS (R12 domain of RyR3; RyR3 R12 + 500 µM AMP-PCP): -1.11 kcal/mol
- Kd (R12 domain of RyR3; RyR3 R12 + 5 mM ADP): 60 ± 9 nM
- No of Sites (N) (R12 domain of RyR3; RyR3 R12 + 5 mM ADP): 0.606 ± 0.23
- ΔH (R12 domain of RyR3; RyR3 R12 + 5 mM ADP): -8.21 ± 0.75 kcal/mol
- −TΔS (R12 domain of RyR3; RyR3 R12 + 5 mM ADP): -1.64 kcal/mol
- Kd (R12 domain of RyR3; RyR3 R12 + 5 mM AMP-PCP): 26 ± 10 nM
- No of Sites (N) (R12 domain of RyR3; RyR3 R12 + 5 mM AMP-PCP): 0.842 ± 0.36
- ΔH (R12 domain of RyR3; RyR3 R12 + 5 mM AMP-PCP): -8.07 ± 0.10 kcal/mol
- −TΔS (R12 domain of RyR3; RyR3 R12 + 5 mM AMP-PCP): -2.27 kcal/mol
- No of Sites (N) (R12 domain of RyR3; RyR3 R12, no nucleotide): 0.651 ± 0.11
- ΔH (R12 domain of RyR3; RyR3 R12, no nucleotide): -80 kcal/mol
- −TΔS (R12 domain of RyR3; RyR3 R12, no nucleotide): 75.60 kcal/mol
- Kd (R12 domain of RyR3; RyR3 R12, no nucleotide, ITC 25 °C): 235000 ± 122000 nM
SMILES: O=C1CN(/N=C/c2ccc(-c3ccc([N+](=O)[O-])cc3)o2)C(O)=N1 [DAN, Dantrolene]
- binding to RyR2 R12 domain by ITC (R12 domain of RyR2): neither DAN nor AZU exhibited detectable binding
